The subject of assay [1] is AMPK. Put plainly: AMPK activation assay (phospho-AMPK Thr172 western blot) in BV-2 cells. Format: cell-based, murine. The note with it: 30 min. The method, then:
(§1) Effects of adenine on AMPK activation were evaluated based on the phosphorylation of AMPK protein upon adenine treatment. Mouse muscle cell C2C12, mouse fibroblast 3T3, human liver carcinoma cell Hep G2, human breast adenocarcinoma cell line MCF7 and human colon adenocarcinoma grade II cell line HT29, human umbilical vein endothelial cell HUVEC, Human acute monocytic leukemiacell THP1, human macrophage cell U937, murine microglia cell BV-2, and mouse neuroblastoma cell Neuro2A and dermal papilla cell were cultured in high-glucose Dulbecco's modified Eagle's medium (DMEM) containing 10% fetal bovine serum (FBS), 4 mM L-glutamine, 2 mM sodium pyruvate and 1% penicillin/streptomycin (Invitrogen GibcoBRL, Carlsbad, Calif., USA) at 37°C, under 5% CO2. Cells were plated at 3 × 10^5 per well in 6-well plates. Twenty-four hours after plating, adenine was added to the culture media as indicated. After 30 min cells were lysed and subject to western blot analysis. Equal amount of protein from each sample was separated by SDS-PAGE and then electroblotted on to PVDF membranes. Membranes were blocked with 3% BSA in PBS for 60 min and incubated with an anti-phospho-AMPK (Thr172) antibody (1:2,000, Cell signaling) or an anti-AMPK antibody (1:2,000, Cell signaling) at 4°C for 16 h followed by the corresponding secondary antibody for 1 h at room temperature (RT). Immunoreactive bands were detected by enhanced chemiluminescence and recorded using Kodak film. The detected signals were scanned and then quantified using TotalLab Quant software (TotalLab).
(In western blotting, separated proteins are transferred to a membrane and probed.)

For assay [2], the system named is AMPK. Description: AMPK activation assay (phospho-AMPK Thr172 western blot) in dermal papilla cells. The format is cell-based. Conditions: 30 min. As for the experimental part:
as §1

For another assay, the system named is IL-1β. Put plainly: LPS-induced inflammatory response in THP1 macrophages, secreted IL-1β (ELISA). Conditions: 50 ng LPS 6 hr. The format is cell-based, human. As for the experimental part: Effects of adenine on inflammatory response were evaluated in human THP1 macrophage by examining protein level of intracellular COX-2 and secreted TNFα, IL-1β and IL-6. Differentiation of THP1 monocytes into macrophages was induced by 50 nM PMA for 24 hr. THP1 macrophages were further stimulated by 50 ng LPS for 6 hr in the presence of 10-600 µM of adenine or vehicle followed by cell lysis and western blot analysis. Equal amounts of protein were separated by SDS-PAGE and then electroblotted on to PVDF membranes. Membranes were blocked with 3% BSA in PBS for 60 min and incubated with an anti-COX-2 antibody (1:1,000, Cell signaling), an anti-actin antibody (1:5,000, Cell signaling) at 4° C for 16 h followed by the corresponding secondary antibody for 1 h at room temperature (RT). Immunoreactive bands were detected by enhanced chemiluminescence and recorded using Kodak film. The detected signals were scanned and then quantified using TotalLab Quant software (TotalLab). The secreted TNFα, IL-1β and IL-6 were analyzed by enzyme-linked immunosorbent assays.
On the technique in general: ELISA stands for enzyme-linked immunosorbent assay.

In another assay the test system is LC3. Description: Autophagy assay (LC3-II/LC3-I western blot) in Neuro2A cells. The format is cell-based, mouse. Conditions: 24 h. The method, then: Effects of adenine on Amyloid β peptide were analyzed in mouse neuroblastoma cell Neuro2A. Neuro2A cells were cultured in high-glucose Dulbecco's modified Eagle's medium (DMEM) containing 10% fetal bovine serum (FBS), 4 mM L-glutamine, 2 mM sodium pyruvate and 1% penicillin/streptomycin (Invitrogen GibcoBRL, Carlsbad, Calif., USA) at 37°C under 5% CO2. Cells were plated at 3 × 10^5 per well (6-well plate). 24 h after plating, cells were transfected with human APP695 and treated with indicated concentration of adenine for 24 h followed by cell lysis and western blot analysis. Equal amounts of protein were separated by SDS-PAGE and then electroblotted on to PVDF membranes. Membranes were blocked with 3% BSA in PBS for 60 min and incubated with an anti-Aβ antibody (1:1,000, abcam), an anti-LC3 antibody (1:1,000, Cell signaling), and an anti-actin antibody (1:5,000, Cell signaling) at 4°C for 16 h followed by the corresponding secondary antibody for 1 h at room temperature (RT). Immunoreactive bands were detected by enhanced chemiluminescence and recorded using Kodakfilm. The detected signals were scanned and then quantified by using TotalLab Quant software (TotalLab).

In assay [3] the test system is 6-mm full-thickness excisional skin wounds. Description: Wound healing and scar formation, excisional skin wounds in mice. Format: in vivo, C57BL/6J mice. The note with it: 14 days. The method, then:
C57BL/6J mice were maintained at 22°C under a 12-h light/dark cycle. The experiments were performed with 12-week-old mice. After anesthetized by an intraperitoneal injection of ketamine (500 mg/kg) and xylazine (100 mg/kg), 6-mm full-thickness excisional skin wounds was made on the backs of mice using 6-mm skin biopsy punches. Immediately after wounding, 10-1200 µM of adenine or saline alone was applied to the wound bed. The skin wounds were then covered by semipermeable transparent dressing and fixed to the skin. The mice were treated with adenine or vehicle for 14 days and then sacrificed. The scar formation is assessed by Masson's trichrome staining (the tissue was fixed by 4% paraformaldehyde).

For assay [4], the system named is Human umbilical vein endothelial cells (HUVECs). Put plainly: ROS production (H2DCF-DA) under high glucose. The format is cell-based. The note with it: 30 mM glucose, 24 h. As for the experimental part: Human umbilical vein endothelial cells (HUVECs) were cultured in Dulbecco's modified Eagle's medium (DMEM) containing 10% fetal bovine serum (FBS), 4 mM L-glutamine, 2 mM sodium pyruvate and 1% penicillin/streptomycin (Invitrogen GibcoBRL, Carlsbad, Calif., USA) at 37°C under 5% CO2. Cells were plated at 2×10^4 per well in black 96-well. Twenty-four hours after plating, medium was changed to fresh DMEM containing either 5.6 or 30 mM glucose and treated with indicated concentration of adenine. Twenty-four hours after treatment, the intracellular ROS was detected using H2DCF-DA. Cells were washed once with PBS and then incubated with 100 µM DCF at 37°C for 30 min. Then the fluorescence of DCF was measured using a Fluorescence Microplate Reader System at 485-nm excitation and 530-nm emission wavelengths.

Structures are written as SMILES.

Turning to `Nc1ncnc2nc[nH]c12` [Adenine, adenine], the “AMPK activation (fold to control)” value with AMPK [1] (adenine 1 microM) was 1.2 fold to control; with AMPK [1] (adenine 10 microM), 1.7 fold to control; in the assay on AMPK [1] (adenine 40 microM), 2.6 fold to control; in the assay with AMPK [1] (adenine 160 microM), 3.2 fold to control; with AMPK [2] (adenine 1 microM), 1.1 fold to control; in the assay on AMPK [2] (adenine 10 microM), 1.4 fold to control. Also, the “AMPK activation (fold to control)” value in the assay on AMPK [2] (adenine 100 microM) was 2.1 fold to control; in the assay on AMPK [2] (adenine 200 microM), 2.5 fold to control; in the assay with AMPK [2] (adenine 600 microM), 2.8 fold to control. Besides, the “IL-1β □ (%to control)” value in the assay with IL-1β (adenine 10 microM) came out at 91±8.4 %to control; in the assay on IL-1β (adenine 100 microM) it was 29±5.5 %to control; in the assay on IL-1β (adenine 600 microM), 17±3.7 %to control. The “LC3-II/LC3-I ratio (relative to control)” value is listed as 1.2 ± 0.1 relative to control with LC3 (adenine 10 microM); 1.8 ± 0.3 relative to control in the assay on LC3 (adenine 20 microM); 2.8 ± 0.2 relative to control in the assay with LC3 (adenine 30 microM); 2.9 ± 0.2 relative to control in the assay on LC3 (adenine 40 microM); 3.2 ± 0.3 relative to control in the assay with LC3 (adenine 50 microM). The extent of closure result in assay [3] (topical 10-1200 µM adenine on wound bed, dose-dependent, vs control mice) is on record as “significantly greater”. Further, the scar width result in assay [3] (topical 10-1200 µM adenine, histological examination, vs vehicle treated wounds) is “significantly decreased”. Also, the “ROS production (% of 5.6 mM glucose)” value in assay [4] (adenine 10 microM) is reported as 211 ± 4.3 % of 5.6 mM glucose; in assay [4] (adenine 100 microM), 116 ± 1.7 % of 5.6 mM glucose; in assay [4] (adenine 200 microM) it was 38.1 ± 2.9 % of 5.6 mM glucose; in assay [4] (adenine 600 microM), 21.7 ± 3.1 % of 5.6 mM glucose; in assay [4] (adenine 1200 microM), 22.4 ± 2.5 % of 5.6 mM glucose.

Values taken from patent EP3050567B1, “COMPOUND FOR ACTIVATING AMPK AND USES THEREOF” (Energenesis Biomedical Co., Ltd., priority 2013, dated 2015).
